Legend:
[1] = target: T1, wt human TYK2, catalytic site (Homo sapiens, UniProt P29597); assay: HTRF KinEASE assay, TYK2; assay type: biochemical; conditions: 1 μM ATP; read-out: IC50, inhibitory activity toward TYK2
T1 construct: 2 nM wt human TYK2, catalytic site (SignalChem/CAN); purchased SignalChem/CAN
T1 sequence (P29597 897-1176 limits assumed): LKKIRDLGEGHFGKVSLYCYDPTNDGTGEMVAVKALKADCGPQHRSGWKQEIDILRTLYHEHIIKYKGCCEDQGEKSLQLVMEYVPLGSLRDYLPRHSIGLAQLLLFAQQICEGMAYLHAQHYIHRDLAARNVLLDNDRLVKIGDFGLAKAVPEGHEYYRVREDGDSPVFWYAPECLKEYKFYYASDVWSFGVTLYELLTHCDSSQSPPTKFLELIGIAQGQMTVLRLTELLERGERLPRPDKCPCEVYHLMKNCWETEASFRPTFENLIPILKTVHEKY
Experimental: Basic protocol for HTRF KinEASE assay (Cisbio/FRA) inhibitor studies involved two steps: Enzymatic step: Addition of 4 μl of test compound in corresponding DMSO dilutions, 4 μl of kinase/substrate mixture, 2 μl of ATP into 384 well small volume plates. Incubation for at least 30 minutes at room temperature.
Detection step: Addition of 5 μl antibody and 5 μl streptavidin-XL665, read plate after 60 minutes. Data analysis of emission ratios according to KinEASE assay protocol.
Kinase and assay components were adjusted to final concentrations according to the kit protocol. For TYK2: 2 nM wt human TYK2, catalytic site (SignalChem/CAN), 1 μM HTRF KinEASE-TK Substrate-biotin, 1 μM ATP in 1× Kinase Buffer

[2] = target: T2, wt human NUAK1, full length (Homo sapiens, UniProt O60285); assay: TR-FRET LanthaScreen Eu Kinase Binding Assay, NUAK1; conditions: 5 nM Kinase Tracer 236; read-out: IC50, inhibitory activity toward NUAK1
T2 construct: 8 nM wt human NUAK1, full length (ThermoFisher/USA); purchased ThermoFisher/USA
T2 sequence (O60285 1-661): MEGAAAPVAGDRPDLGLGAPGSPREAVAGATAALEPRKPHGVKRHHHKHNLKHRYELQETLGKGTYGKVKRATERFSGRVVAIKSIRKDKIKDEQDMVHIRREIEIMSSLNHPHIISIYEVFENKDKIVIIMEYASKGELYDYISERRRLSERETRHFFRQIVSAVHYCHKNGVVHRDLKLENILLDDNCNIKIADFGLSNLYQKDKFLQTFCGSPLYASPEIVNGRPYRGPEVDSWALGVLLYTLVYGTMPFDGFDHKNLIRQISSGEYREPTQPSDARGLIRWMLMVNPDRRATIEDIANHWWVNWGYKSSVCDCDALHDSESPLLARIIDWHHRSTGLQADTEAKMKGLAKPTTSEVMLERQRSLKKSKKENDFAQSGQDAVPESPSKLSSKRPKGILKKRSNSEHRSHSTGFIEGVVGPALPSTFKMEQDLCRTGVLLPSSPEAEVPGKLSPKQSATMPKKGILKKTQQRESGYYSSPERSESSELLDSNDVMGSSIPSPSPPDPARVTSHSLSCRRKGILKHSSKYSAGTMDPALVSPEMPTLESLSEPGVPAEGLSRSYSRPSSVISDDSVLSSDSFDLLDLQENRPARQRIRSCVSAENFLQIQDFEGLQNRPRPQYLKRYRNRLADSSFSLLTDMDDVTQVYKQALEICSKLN
Experimental: The basic protocol for TR-FRET LanthaScreen Eu Kinase Binding Assay inhibitor studies were performed as follows. LanthaScreen Kinase Binding Assays (ThermoFisher/USA) to evaluate inhibitors were performed by addition of 5 μl of test compound in corresponding DMSO dilutions/5 μl of kinase/antibody mixture, 5 μl of tracer into 384 well small volume plates. After incubation for 1 hour at room temperature, plates were read. Data analysis of emission ratios was according to LanthaScreen Eu Kinase Binding Assay protocol.
Kinase and assay components were adjusted to final concentrations according to the kit protocol. For LRRK2: 5 nM wt human LRRK2, catalytic site, or G2019S human LRRK2, catalytic site (ThermoFisher/USA), 2 nM Eu-Anti-GST Antibody, 10 nM Kinase Tracer 236 in 1× Kinase Buffer A. For NUAK1: 8 nM wt human NUAK1, full length (ThermoFisher/USA), 2 nM Eu-Anti-His Antibody, 5 nM Kinase Tracer 236 in 1× Kinase Buffer A.

IC50 [1] [nM] | IC50 [2] [nM] | SMILES
100 to 1000 | 100 to 1000 | OCCNc1cc(F)c(C2=Nc3c[nH]nc3-c3ccccc3N2)c(F)c1 [Compound 150, 2-((4-(2,6-dihydrobenzo[d]pyrazolo[3,4-f][1,3]diazepin-5-yl)-3,5-difluorophenyl)amino)ethan-1-ol]
10 to 100 | 10 to 100 | COc1cc2c(cn1)NC(c1c(F)cccc1F)=Nc1cn[nH]c1-2 [Compound 127, 5-(2,6-difluorophenyl)-9-methoxy-1,6-dihydropyrazolo[4,3-d]pyrido[4,3-f][1,3]diazepine]
10 to 100 | 100 to 1000 | Fc1cccc(-c2ccc3c(c2)N=C(c2c(Cl)cccc2Cl)Nc2c[nH]nc2-3)c1 [Compound 243, 5-(2,6-dichlorophenyl)-8-(3-fluorophenyl)-2,4-dihydrobenzo[d]pyrazolo[3,4-f][1,3]diazepine]
100 to 1000 | 100 to 1000 | Cc1ccc2c(c1)-c1[nH]ncc1NC(c1c(Cl)cccc1Cl)=N2 [Compound 152, 5-(2,6-dichlorophenyl)-9-methyl-1,4-dihydrobenzo[d]pyrazolo[3,4-f][1,3]diazepine]
10 to 100 | 10 to 100 | Fc1cccc(Cl)c1C1=Nc2cc(-c3ccn[nH]3)ccc2-c2[nH]ncc2N1 [Compound 160, 5-(2-chloro-6-fluorophenyl)-8-(1H-pyrazol-5-yl)-1,4-dihydrobenzo[d]pyrazolo[3,4-f][1,3]diazepine]
100 to 1000 | 10 to 100 | Fc1cc(F)c(C2=Nc3cn[nH]c3-c3cc(F)ccc3N2)c(F)c1 [Compound 203, 9-fluoro-5-(2,4,6-trifluorophenyl)-1,6-dihydrobenzo[d]pyrazolo[3,4-f][1,3]diazepine]
< 10 | 10 to 100 | Fc1cccc(-c2ccc3c(c2)N=C(c2c(F)cccc2Cl)Nc2c[nH]nc2-3)c1 [Compound 241, 5-(2-chloro-6-fluorophenyl)-8-(3-fluorophenyl)-2,4-dihydrobenzo[d]pyrazolo[3,4-f][1,3]diazepine]
100 to 1000 | 10 to 100 | CCc1cc(F)c2c(c1)-c1[nH]nc(Cl)c1NC(c1c(F)cccc1F)=N2 [Compound 168, 3-chloro-5-(2,6-difluorophenyl)-9-ethyl-7-fluoro-1,4-dihydrobenzo[d]pyrazolo[3,4-f][1,3]diazepine]
100 to 1000 | 10 to 100 | Nc1ccc2c(c1)-c1[nH]ncc1N=C(c1c(F)cccc1F)N2 [Compound 103, 5-(2,6-difluorophenyl)-1,6-dihydrobenzo[d]pyrazolo[3,4-f][1,3]diazepin-9-amine]
100 to 1000 | 100 to 1000 | Cc1ccc2c(c1)-c1n[nH]cc1NC(c1c(F)ccc(C(F)(F)F)c1F)=N2 [Compound 217, 5-(2,6-difluoro-3-(trifluoromethyl)phenyl)-9-methyl-2,4-dihydrobenzo[d]pyrazolo[3,4-f][1,3]diazepine]
100 to 1000 | 10 to 100 | Cc1ccc2c(c1)-c1[nH]ncc1N=C(c1c(F)cccc1[N+](=O)[O-])N2 [Compound 125, 5-(2-fluoro-6-nitrophenyl)-9-methyl-1,6-dihydrobenzo[d]pyrazolo[3,4-f][1,3]diazepine]
10 to 100 | 100 to 1000 | Fc1cc2c(cc1-c1cccnn1)N=C(c1c(Cl)cccc1Cl)Nc1c[nH]nc1-2 [Compound 227, 5-(2,6-dichlorophenyl)-9-fluoro-8-(pyridazin-3-yl)-2,4-dihydrobenzo[d]pyrazolo[3,4-f][1,3]diazepine]
100 to 1000 | 100 to 1000 | COc1ccc2c(c1)-c1[nH]ncc1N=C(c1c(F)cccc1F)N2 [Compound 38, 5-(2,6-difluorophenyl)-9-methoxy-1,6-dihydrobenzo[d]pyrazolo[3,4-f][1,3]diazepine]
100 to 1000 | 10 to 100 | Cc1ccc2c(c1)-c1[nH]ncc1NC(c1c(F)ccc(F)c1F)=N2 [Compound 182, 9-methyl-5-(2,3,6-trifluorophenyl)-1,4-dihydrobenzo[d]pyrazolo [3,4-f][1,3]diazepine]
100 to 1000 | 10 to 100 | Cc1ccc2c(c1)-c1[nH]nc(Cl)c1NC(c1c(F)cccc1F)=N2 [Compound 143, 3-chloro-5-(2,6-difluorophenyl)-9-methyl-1,4-dihydrobenzo[d]pyrazolo [3,4-f][1,3]diazepine]
10 to 100 | 10 to 100 | Fc1cccc(Cl)c1C1=Nc2cc(OC3CCOCC3)ccc2-c2[nH]ncc2N1 [Compound 155, 5-(2-chloro-6-fluorophenyl)-8-((tetrahydro-2H-pyran-4-yl)oxy)-1,4-dihydrobenzo[d]pyrazolo[3,4-f][1,3]diazepine]
< 10 | 10 to 100 | O=C(O)c1ccc2c(c1)N=C(c1c(F)cccc1F)Nc1cn[nH]c1-2 [Compound 73, 5-(2,6-difluorophenyl)-1,4-dihydrobenzo[d]pyrazolo[3,4-f][1,3]diazepine-8-carboxylic acid]
10 to 100 | < 10 | Fc1ccccc1-c1ccc2c(c1)N=C(c1c(F)cccc1Cl)Nc1c[nH]nc1-2 [Compound 234, 5-(2-chloro-6-fluorophenyl)-8-(2-fluorophenyl)-2,4-dihydrobenzo[d]pyrazolo[3,4-f][1,3]diazepine]
100 to 1000 | 10 to 100 | Cc1cc(F)c2c(c1)-c1[nH]ncc1NC(c1c(F)cccc1F)=N2 [Compound 138, 5-(2,6-difluorophenyl)-7-fluoro-9-methyl-1,4-dihydrobenzo [d]pyrazolo[3,4-f][1,3]diazepine]
10 to 100 | 100 to 1000 | COc1ccc2c(c1)N=C(c1c(F)cccc1F)Nc1cn[nH]c1-2 [Compound 49, 5-(2,6-difluorophenyl)-8-methoxy-1,4-dihydrobenzo[d]pyrazolo[3,4-f][1,3]diazepine]
100 to 1000 | 10 to 100 | Cc1ccc2c(c1)-c1[nH]ncc1N=C(c1c(F)cccc1F)N2 [Compound 36, 5-(2,6-difluorophenyl)-9-methyl-1,6-dihydrobenzo[d]pyrazolo[3,4-f][1,3]diazepine]
10 to 100 | 100 to 1000 | Fc1cc2c(cc1OC1CCCC1)N=C(c1c(F)cccc1Cl)Nc1c[nH]nc1-2 [Compound 245, 5-(2-chloro-6-fluorophenyl)-8-(cyclopentyloxy)-9-fluoro-2,4-dihydrobenzo[d]pyrazolo[3,4-f][1,3]diazepine]
< 10 | 100 to 1000 | Cc1cc2c(cc1C(=O)NC1CCOCC1)N=C(c1c(F)cccc1F)Nc1cn[nH]c1-2 [Compound 157, 5-(2,6-difluorophenyl)-9-methyl-N-(tetrahydro-2H-pyran-4-yl)-1,4-dihydrobenzo[d]pyrazolo[3,4-f][1,3]diazepine-8-carboxamide]

SMILES | IC50 [1] [nM] | IC50 [2] [nM]
Fc1ccc2c(c1)-c1[nH]ncc1N=C(c1c(F)cccc1Cl)N2 [Compound 34, 5-(2-chloro-6-fluorophenyl)-9-fluoro-1,6-dihydrobenzo[d]pyrazolo[3,4-f][1,3]diazepine] | 10 to 100 | 10 to 100
Fc1cccc(F)c1C1=Nc2ccc(Cl)cc2-c2[nH]ncc2N1 [Compound 25, 9-chloro-5-(2,6-difluorophenyl)-1,4-dihydrobenzo[d]pyrazolo[3,4-f][1,3]diazepine] | 100 to 1000 | 10 to 100
COc1ccc2c(c1)N=C(c1c(F)cccc1Cl)Nc1cn[nH]c1-2 [Compound 158, 5-(2-chloro-6-fluorophenyl)-8-methoxy-1,4-dihydrobenzo[d]pyrazolo[3,4-f][1,3]diazepine] | 10 to 100 | 10 to 100
